Assay results: patent publication US7060486B2, “Inhibition of sulfate-reducing-bacteria-mediated degradation using bacteria which secrete antimicrobials” (priority 1998, dated 2006)
Square brackets hold non-standard residues; d marks the D form. Ends that are not written are not given here. Peptide text beside a SMILES is read from it. Orn = NCCC[C@H](N)C(=O)O

Key:
[1] = system: SRB (D. vulgaris) on 304 stainless steel; test: Continuous reactor with 304 stainless steel and SRB, electrochemical impedance spectroscopy; settings: 100 μg/mL added to P. fragi K biofilm 24 hours before D. vulgaris
Description: Batch culture corrosion experiments using SAE 1018 mild steel coupons (2.5 cm diameter, 1.2 mm thick) were performed in triplicates in 250 mL Erlenmeyer flasks at 30° C. without shaking as described previously (Jayaraman et al., 1997a). A continuous reactor (Jayaraman et al., 1997c) was also used to develop biofilms on 304 stainless steel and monitor corrosion using electrochemical impedance spectroscopy (EIS) in a minimum of two independent reactors using a Solarton-Schlumberger electrochemical measurement unit (SI 1280, Schlumberger Technical Instruments Division, San Jose, Calif.) interfaced to a Macintosh computer (PowerMac 7100/80, Apple Computers, Cupertino, Calif.) running EISIS electrochemical experimentation software (University of California, Irvine) (similar commercial software, THALES, can also be used). The open circuit potential (OCP) was measured as the potential between the metal specimen and a Ag/AgCl reference electrode, and the polarization resistance (Rp) was determined as the low-frequency value of the impedance (where the imaginary part of the impedance was zero or negligible). Continuous culture corrosion rates were estimated as the inverse of the polarization resistance (Macdonald, D. D. and M. C. H. McCubre, Applications of impedance spectroscopy, p. 262–267. In J. R. Macdonald (ed.), Impedance spectroscopy: Emphasizing solid materials and systems, John Wiley & Sons, New York (1987); Stem, M., Journal of Electrochemical Society, 105(11):638–647 (1958)).
A continuous reactor was used to develop biofilms on metal surfaces as previously described (Jayaraman et al., 1997c). Electrochemical impedance spectroscopy (EIS) was used to obtain impedance data in at least duplicate experiments using a Solarton-Schlumberger electrochemical measurement unit (SI 1280, Schlumberger Technical Instruments Division, San Jose, Calif.) interfaced to a Macintosh computer (PowerMac 7100/80, Apple Computers, Cupertino, Calif.) running EISIS electrochemical experimentation software (University of California, Irvine) (THALES, a similar commercial software, can also be used). The open-circuit potential (OCP) was measured as the potential between the metal specimen and the reference electrode (Ag/AgCl), and the polarization resistance was determined as the dc limit of the impedance using the ANALEIS software developed by Mansfeld et al. (ASTM Special Technical Protocol 1154:186 (1992)). […]

[2] = system: SRB (D. vulgaris) on SAE 1018 mild steel; test: Continuous reactor with SAE 1018 mild steel and SRB, electrochemical impedance spectroscopy
Text: A continuous reactor was used to develop biofilms on metal surfaces as previously described (Jayaraman et al., 1997c). Electrochemical impedance spectroscopy (EIS) was used to obtain impedance data in at least duplicate experiments using a Solarton-Schlumberger electrochemical measurement unit (SI 1280, Schlumberger Technical Instruments Division, San Jose, Calif.) interfaced to a Macintosh computer (PowerMac 7100/80, Apple Computers, Cupertino, Calif.) running EISIS electrochemical experimentation software (University of California, Irvine) (THALES, a similar commercial software, can also be used). The open-circuit potential (OCP) was measured as the potential between the metal specimen and the reference electrode (Ag/AgCl), and the polarization resistance was determined as the dc limit of the impedance using the ANALEIS software developed by Mansfeld et al. (ASTM Special Technical Protocol 1154:186 (1992)). Continuous culture corrosion rates were estimated from the experimental polarization resistance Rp based on the Stern-Geary equation Rp=B/Icorr, where B is a parameter depending on the Tafel slopes and icorr is the corrosion current density which can be converted into a corrosion rate using Faraday's law (Mansfeld, F., The polarization resistance technique for measuring corrosion currents, In Fontana, M. G., Staehle, R. W. (ed.), Advances in Corrosion Science and Technology, Plenum Press, New York (1976)).
A 3% (vol/vol) SRB inoculum (culture age 24–48 hours) was added to the reactor after 3 to 5 days of aerobic biofilm development. […] All antimicrobials were simultaneously added to the nutrient feed and the reactor at appropriate concentrations.

D. vulgaris (ATCC 29579) = test: SRB inhibitory assay: viability after one-hour exposure, MPN technique; type: cell-based
Description: (§1) D. vulgaris (ATCC 29579) and D. gigas (ATCC 19364) were obtained from the American Type Culture Collection and cultivated in 15 mL screwcap tubes with 10 mL of modified Baar's medium (ATCC medium 1249) supplemented with 100 μL each of the oxygen-scavengers 4% sodium sulfide and Oxyrase (Oxyrase Inc., Mansfeld, Ohio). Initial cultures were grown from −85° C. glycerol stocks; all subsequent cultures were grown with a 3% inoculum from the initial culture maintained at 30° C. without shaking. […] SRB were also cultured periodically in the presence of 0.1% ferrous ammonium sulfate, and the presence of these sulfate-reducers was confirmed by the detection of black iron sulfide in the culture tubes. The desulfoviridin assay was also performed after each MPN assay to confirm the presence of D. vulgaris or D. gigas by its red color under UV light due to the release of the chromophore of the pignment desulfoviridin. (Postgate, 1984).
(§2) For determining the viability indices (Romeo, et al., 1988) of SRB, a late-exponential phase culture (O.D600 0.16 to 0.19 which corresponded to an initial cell number of 5–9×10^4 cells/mL) was exposed to various concentrations of antimicrobials for 1 hour at 30° C. One mL of cells was harvested, washed once in fresh modified Baar's medium to remove cellular debris, and resuspended in 1 mL of fresh modified Baar's medium supplemented with 10 μL each of Oxyrase (Oxyrase Inc., Mansfeld, Ohio) and 4% sodium sulphide. Aliquots of 450 μL were dispensed in 500 μL sterile eppendorf tubes and appropriate amounts of antimicrobials added and incubated at 30° C. The effectiveness of treatment was determined by the multiple-tube most-probable-number (MPN) fermentation technique. (Anonymous. Multiple-tube fermentation technique for members of the coliform group, pp. 9–45 to 9–51. In A. E. Greenberg, L. S. Clesceri, and A. D. Eaton (eds.), Standard Methods for the Examination of Water and Wastewater, 18 ed. American Public Health Association, American Water Works Association, and Water Pollution Control Federation, New York (1992)) (hereafter, Greenberg, 1992).
(§3) The MPN test for enumerating SRB was performed in three 12 mL tubes with a 1000 μL inoculum of SRB, three 12 mL tubes with a 500 μL inoculum, and three 12 mL tubes with a 100 μL inoculum. All nine tubes contained a final volume of 10 mL of modified Baar's medium supplemented with 100 μL each of 4% sodium sulfide and Oxyrase (Oxyrase Inc., Mansfeld, Ohio). The tubes were monitored for 72 hours to determine the number of tubes that were positive for growth. Growth was determined by the increase in culture turbidity, and the MPN index/mL was calculated using the Thomas formula. (Greenberg 1992).

D. gigas (ATCC 19364) = test: as above; type: cell-based
Description: as §1, §2, §3

P. fragi K = test: Growth of P. fragi K in overnight suspension cultures with antimicrobials; type: cell-based; settings: 100 μg/mL, overnight suspension culture
Gram-negative bacteria = settings: cited from earlier work
E. coli BK6 = test: Antimicrobial activity of concentrated culture supernatants in suspension; type: cell-based; settings: buffer + kanamycin 100 μg/mL
Description: B. subtilis BE1500 containing the plasmid pBE92-based constructs expressing the antimicrobial peptide genes was grown in 25 mL of LB medium to late-exponential phase (O.D600=0.70–1.0) at 37° C. The cells were collected by centrifugation at 10,000×g for 10 mins at 4° C., and the supernatant was concentrated 25-fold using a SpeedVac concentrator (Model 200H, Savant Instruments Inc., Holbrook, N.Y.).
Expression of indolicidin and bactenecin in Bacillus was determined in duplicates by exposing E. coli BK6 in suspension to concentrated culture supernatants. E. coli BK6 was grown to an O.D600 of 0.20–0.25, pelleted at room temperature, and resuspended in different volumes (50 or 100 μL) of the concentrated supernatant. The cell suspension was incubated at 30° C. for 1 hour without aeration, and appropriate dilutions were plated on LB agar plates to determine the antimicrobial activity of the supernatant.

wild-type P. fragi = test: Live/Dead stain control visualized with CSLM; type: cell-based; settings: 200 μg ml^−1 added to 12-hour culture, visualized after 48 hours
Description: Cells and polysaccharide were stained for 30 min simultaneously in 4 ml of staining solution using the Live/Dead Baclit bacteria viability assay kit protocol (1.125 μl ml^−1 of each stain component, Molecular Probes (Eugene, Oreg.)) and calcofluor (300 μl ml^−1, Sigma (St. Louis, Mo.), Stewart et al. 1995). The live/dead viability kit distinguishes live and dead cells based on membrane integrity; live cells with intact membranes stain green, and dead cells with compromised membranes stain red.
As a control experiment to verify that the Live/Dead stain can be used to quantify populations with live and dead cells, 200 μg ml^−1 of kanamycin was added to a 12-hour wild-type P. fragi culture and visualized with CSLM after 48 hours.

B. subtilis BE1500 = test: Susceptibility of host strains to purified antimicrobials (plate counts); type: cell-based; settings: one hour exposure at 30° C.
Description: (§4) To determine the susceptibility of the hosts B. subtilis BE1500 and B. polymyxa to the expressed antimicrobials, these strains were grown from a single colony in 25 mL of LB medium with shaking at 37° C. to an O.D600 of 0.40–0.45. One mL aliquots were collected, washed with fresh LB medium and resuspended in 100 μL fresh LB medium in sterile eppendorf tubes. The antimicrobials indolicidin and bactenecin were added (50–100 μg/mL) and the tubes were incubated at 30° C. for one hour without shaking. Appropriate dilutions were spread on LB agar plates and incubated overnight at 37° C. to determine the extent of survival. The results were confirmed by performing two independent experiments.

B. polymyxa 10401 = test: as above; type: cell-based; settings: one hour exposure at 30° C.
Description: as §4

Escherichia coli = settings: 5–25 μg/mL; cited from earlier work
B. subtilis WB600 = test: Susceptibility of host strains to purified antimicrobials (plate counts); type: cell-based; settings: one hour exposure at 30° C.
Staphylococcus aureus = settings: 5–25 μg/mL; cited from earlier work

CC(C)C[C@@H]1NC(=O)[C@H](CCCN)NC(=O)[C@H](C(C)C)NC(=O)[C@@H]2CCCN2C(=O)[C@@H](Cc2ccccc2)NC(=O)[C@H](CC(C)C)NC(=O)[C@H](CCCN)NC(=O)[C@H](C(C)C)NC(=O)[C@@H]2CCCN2C(=O)[C@@H](Cc2ccccc2)NC1=O [gramicidin S] (cyclo(V[Orn]L[dF]PV[Orn]L[dF]P))
effect on D. vulgaris, in words [1]: completely effective in inhibiting the growth of D. vulgaris
effect on D. vulgaris, in words ([2]; 100 μg/mL added to P. fragi K biofilm 24 hours before D. vulgaris): the onset of D. vulgaris-induced corrosion of mild steel was delayed
time after D. vulgaris addition without change / increase in Rp ([2]; 100 μg/mL added to P. fragi K biofilm before D. vulgaris): ≥ 80 h
reduction of viability (D. vulgaris (ATCC 29579); D. vulgaris, 1 h, 100 μg/mL): 93%
concentration with inhibitory effect (D. vulgaris (ATCC 29579); this study): 50 to 100 µg/mL
reduction of viability (D. gigas (ATCC 19364); D. gigas, 1 h, 25 μg/mL): 92–96%
concentration with inhibitory effect (D. gigas (ATCC 19364); this study): 50 to 100 µg/mL
growth of P. fragi K, in words (P. fragi K): grew to saturation
concentration that completely inhibits growth (Gram-negative bacteria): 3 to 12.5 µg/mL

NC[C@H]1O[C@H](O[C@H]2[C@H](O)[C@@H](O[C@H]3O[C@H](CO)[C@@H](O)[C@H](N)[C@H]3O)[C@H](N)C[C@@H]2N)[C@H](O)[C@@H](O)[C@@H]1O [kanamycin]
inhibition at 100 µg/mL (E. coli BK6; Escherichia coli, BK6): 100%
E. coli BK6 CFU/mL (E. coli BK6): 4 × 10^3 CFU/mL
red (dead) share of the sample (wild-type P. fragi): approximately 75%

ILPWKWPWWWPWRR [Ind-OH]
Fold-reduction in cell number (B. subtilis BE1500; 50 μg/mL): 6000
Fold-reduction in cell number (B. subtilis BE1500; 100 μg/mL): 10,000
Fold-reduction in cell number (B. polymyxa 10401; 50 μg/mL): 4
Fold-reduction in cell number (B. polymyxa 10401; 100 μg/mL): 4
inhibition (Escherichia coli): 99.9%
fold less effective than the amidated form of indolicidin (D. vulgaris (ATCC 29579); 25 μg/mL): 174 fold
fold less effective than the amidated form of indolicidin (D. gigas (ATCC 19364); 25 μg/mL): 10 fold
Fold-reduction in cell number (B. subtilis WB600; 50 μg/mL): 20,000
Fold-reduction in cell number (B. subtilis WB600; 100 μg/mL): 40,000
inhibition (Staphylococcus aureus): 99.9%
